System: 22Rv1-Enz^R
Experiment: 22Rv1-Enz^R cell proliferation assay
Type: cell-based
Conditions: human prostate cancer cell line 22Rv1-Enz^R; 6-day culture, cell media changed every 24 hours; half maximal growth inhibition constant; read-out: 22Rv1-Enz^R proliferation assay GIC50
Protocol: The human prostate cancer cell line, 22Rv1 has been reported to express a high level of AR-V7. According to one procedure, 22Rv1 is seeded at 50,000 cells/well on a 24-well plate in quadruplicate and treated with test compounds in concentrations ranging up to 20 μM for four days. Standard culture media is RPMI-1640 supplemented with 10% fetal bovine serum. The test compound initially is dissolved in DMSO at 50 mM. This stock solution is then diluted as needed for the indicated concentrations. At the end of the four-day period, cells are harvested using 1% trypsin and counted using an automated cell counter.
Selected compounds may be tested in the human prostate cancer cell line, 22Rv1-Enz^R as described in Geun Taek Lee et al., Molecular Cancer Therapeutics, 20:490-9 (2021). These procedures are similar to that described in Experimental Example 1, above, except that the assay conditions are a 6-day culture with cell media changed every 24 hours.
In the following Table (half maximal growth inhibition constant, GIC50): (*)-GIC50 2-10 μM; (++)-GIC50 1.0-2.0 μM; (+++)-GIC50<1.0 μM.

IC50	Structure (SMILES)
2 to 10 µM	O=C1CCC(c2ccc(OCCOCCOCCn3cc(CCOc4c(-c5csc(N6CCOCC6)n5)ccc(F)c4F)nn3)cc2)C(=O)N1 (stereo not drawn) [Example 10, 3-(4-(2-(2-(2-(4-(2-(2,3-difluoro-6-(2-morpholinothiazol-4-yl)phenoxy)ethyl)-1H-1,2,3-triazol-1-yl)ethoxy)ethoxy)ethoxy)phenyl)piperidine-2,6-dione]
2 to 10 µM	O=C(CCCCCCCCOc1c(-c2csc(N3CCOCC3)n2)ccc(F)c1F)NCCCCNC(=O)c1ccc(N2CCC(=O)NC2=O)cc1 [Example 15, N-(4-(9-(2,3-difluoro-6-(2-morpholinothiazol-4-yl)phenoxy)nonanamido)butyl)-4-(2,4-dioxotetrahydropyrimidin-1(2H)-yl)benzamide]
< 1 µM	O=C(COc1ccc(C2CCC(=O)NC2=O)cc1)NCCCCCCCCNC(=O)COc1c(-c2csc(N3CCOCC3)n2)ccc(F)c1F (stereo not drawn) [Example 1, 2-(2,3-Difluoro-6-(2-morpholinothiazol-4-yl)phenoxy)-N-(8-(2-(4-(2,6-dioxopiperidin-3-yl)phenoxy)acetamido)octyl)acetamide]
1 to 2 µM	O=C1CCC(c2ccc(OCC(=O)N3CCN(CCOCCOc4c(-c5csc(N6CCOCC6)n5)ccc(F)c4F)CC3)cc2)C(=O)N1 (stereo not drawn) [Example 2, 3-(4-(2-(4-(2-(2-(2,3-Difluoro-6-(2-morpholinothiazol-4-yl)phenoxy)ethoxy)ethyl)piperazin-1-yl)-2-oxoethoxy)phenyl)piperidine-2,6-dione]

Further lines, the compound ahead of its results:

Structure (SMILES)	IC50
O=C(CCCCCCCCOc1c(-c2csc(N3CCOCC3)n2)ccc(F)c1F)NCCOCCOCC(=O)Nc1ccc(C2CCC(=O)NC2=O)cc1 (stereo not drawn) [Example 14, 9-(2,3-difluoro-6-(2-morpholinothiazol-4-yl)phenoxy)-N-(2-(2-(2-((4-(2,6-dioxopiperidin-3-yl)phenyl)amino)-2-oxoethoxy)ethoxy)ethyl)nonanamide]	1 to 2 µM
O=C(CCCCCCCCOc1cccc(-c2csc(N3CCOCC3)n2)c1)NCCCCC(=O)Nc1ccc(C2CCC(=O)NC2=O)cc1 (stereo not drawn) [Example 6, N-(5-((4-(2,6-dioxopiperidin-3-yl)phenyl)amino)-5-oxopentyl)-9-(3-(2morpholinothiazol-4-yl)phenoxy)nonanamide]	2 to 10 µM
O=C(CCCCCCCCOc1c(-c2csc(N3CCOCC3)n2)ccc(F)c1F)NCCCCC(=O)Nc1ccc(C2CCC(=O)NC2=O)cc1 (stereo not drawn) [Example 4, 9-(2,3-difluoro-6-(2-morpholinothiazol-4-yl)phenoxy)-N-(5-((4-(2,6-dioxopiperidin-3-yl)phenyl)amino)-5-oxopentyl)nonanamide]	< 1 µM
O=C(CCCCCCCCOc1c(-c2csc(N3CCOCC3)n2)ccc(F)c1F)NCCCCCCC(=O)Nc1ccc(C2CCC(=O)NC2=O)cc1 (stereo not drawn) [Example 13, 9-(2,3-difluoro-6-(2-morpholinothiazol-4-yl)phenoxy)-N-(7-((4-(2,6-dioxopiperidin-3-yl)phenyl)amino)-7-oxoheptyl)nonanamide]	1 to 2 µM
O=C(COc1ccc(C2CCC(=O)NC2=O)cc1)NCCOCCOCCOCCOc1c(-c2csc(N3CCOCC3)n2)ccc(F)c1F (stereo not drawn) [Example 3, N-(2-(2-(2-(2-(2,3-Difluoro-6-(2-morpholinothiazol-4-yl)phenoxy)ethoxy)ethoxy)ethoxy)ethyl)-2-(4-(2,6-dioxopiperidin-3-yl)phenoxy)acetamide]	2 to 10 µM
O=C(CCCCCCCCOc1ccc(-c2csc(N3CCOCC3)n2)cc1)NCCCCC(=O)Nc1ccc(C2CCC(=O)NC2=O)cc1 (stereo not drawn) [Example 7, N-(5-((4-(2,6-Dioxopiperidin-3-yl)phenyl)amino)-5-oxopentyl)-9-(4-(2morpholinothiazol-4-yl)phenoxy)nonanamide]	1 to 2 µM
O=C1CCC(c2ccc(NC(=O)CCCCCCCCOc3c(-c4csc(N5CCOCC5)n4)ccc(F)c3F)cc2)C(=O)N1 (stereo not drawn) [Example 12, 9-(2,3-difluoro-6-(2-morpholinothiazol-4-yl)phenoxy)-N-(4-(2,6-dioxopiperidin-3-yl)phenyl)nonanamide]	2 to 10 µM
O=C1CCC(c2ccc(OCCOCCOCCOCCn3cc(CCOc4c(-c5csc(N6CCOCC6)n5)ccc(F)c4F)nn3)cc2)C(=O)N1 (stereo not drawn) [Example 11, 3-(4-(2-(2-(2-(2-(4-(2-(2,3-difluoro-6-(2-morpholinothiazol-4-yl)phenoxy)ethyl)-1H-1,2,3-triazol-1-yl)ethoxy)ethoxy)ethoxy)ethoxy)phenyl)piperidine-2,6-dione]	1 to 2 µM

Source: patent US20240207415A1, “BI-FUNCTIONAL COMPOUNDS AND METHODS FOR TARGETED UBIQUITINATION OF ANDROGEN RECEPTOR” (MONTELINO THERAPEUTICS, INC., priority 2022, published 2024)
